Structures are written as SMILES. A value given as a limit tells only on which side of the number the result lay.

By IC50 is commonly meant the midpoint of a concentration-inhibition curve.

The first assay concerns the target T1, human 17βHSD type 3 (Homo sapiens, UniProt P37058).
T1 construct: A full-length cDNA encoding human 17βHSD type 3 used in the pharmacological test; made in house; host or cells: human fetus kidney-derived 293 cells (transfected; supernatant of disrupted cells, not purified)
T1 sequence (P37058 1-310): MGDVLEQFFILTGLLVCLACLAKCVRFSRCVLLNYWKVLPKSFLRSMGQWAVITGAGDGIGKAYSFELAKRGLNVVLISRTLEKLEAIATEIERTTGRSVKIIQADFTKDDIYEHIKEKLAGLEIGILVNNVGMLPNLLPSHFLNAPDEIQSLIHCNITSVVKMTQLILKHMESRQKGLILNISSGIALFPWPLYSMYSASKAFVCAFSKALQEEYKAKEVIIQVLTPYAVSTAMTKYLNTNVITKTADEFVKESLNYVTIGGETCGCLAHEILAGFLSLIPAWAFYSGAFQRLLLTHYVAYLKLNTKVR
Kind of assay: Measurement of enzyme activity of human 17βHSD type 3. The format is biochemical. The settings on record: enzyme source: supernatant of transformed 293 cells; read-out: Type3 IC50. As for the experimental part:
A full-length cDNA encoding human 17βHSD type 3 used in the pharmacological test of this test example was obtained by the PCR method using a cDNA derived from human testis as a template. The nucleotide sequence of the obtained cDNA was analyzed by the dideoxyterminator method, and the clone matched with the known human 17βHSD type 3 sequence (GenBank accession No. BC034281) was selected. Subsequently, human fetus kidney-derived cell line, 293 cells, were transformed with a plasmid containing the cDNA, and the cells were collected 24 hours later. […]
Enzyme activity was measured referring to Trevor M. Penning, et al., Biochem. J., 351, 67-77, (2000). Specifically, using a 100 mM potassium phosphate buffer (pH 6.0), (1) the enzyme purified in Section 1 at a final concentration of 10 μg/mL, (2) androstenedione at a final concentration of 300 nM, (3) NADPH at a final concentration of 200 μM, and (4) a test substance, were mixed to react at room temperature for 2 hours, and then the amount of testosterone produced was measured using DELFIA (trademark) Testosterone Reagents R050-201 (manufactured by PerkinElmer). […] Then, IC50 values were calculated by the Logistic regression method.
For `COc1nc2cc(C(F)(F)F)ccc2n1-c1cccc(C(=O)O)c1` [compound 32, 3-[2-methoxy-5-(trifluoromethyl)-1H-benzimidazol-1-yl]benzoic acid], the IC50 is > 10 µM.

For the molecule `O=C(O)c1cccc(-n2c(COc3ccccc3)nc3cc(C(F)(F)F)ccc32)c1` [compound 44, 3-[2-phenoxymethyl-5-(trifluoromethyl)-1H-benzimidazol-1-yl]benzoic acid], the IC50 was > 10 µM.

The next assay relates to testosterone production in the CWR22R tumor. Briefly: Testosterone production suppression in the tumor of a CWR22R tumor-bearing mouse. It is filed as in vivo, nude mouse. The following applies: 22Rv1, 10 mg/kg oral, androstenedione 1 ng/100 mm^3 into the tumor an hour later, dissection an hour after that, read-out: Inh (%) testosterone production suppression rate. The text has this:
Inhibition rate (%)=100×(average value of the hormone concentration in the solvent for administering test substance-administered group−average value of the hormone concentration in the test substance-administered group)/(average value of the hormone concentration in the solvent for administering test substance-administered group−average value of the background hormone concentration)
A CWR22R tumor was excised from a CWR22R subcutaneous tumor-bearing nude mouse. The excised tumor was segmented to become tumor specimens with size of about 5 mm per specimen. The tumor specimens were washed with a 20% serum-containing RPMI1640 culture medium twice and then stirred for about 20 minutes in a 0.1% protease and 20% serum-containing RPMI1640 culture medium. Supernatant was recovered to recover cells through centrifugation. These procedures were repeated as necessary, recovered cells were collected, and thereby the cell solution was prepared. After the cell number was counted, the cell solution was adjusted to 2×10^7 cells/mL. The same amount of the cell solution and Matrigel were mixed and adjusted to the final value of 1×10^7 cells/mL. 0.1 mL of the cell Matrigel mixture prepared in the above-described manner was subcutaneously injected to one site of the back of a male nude mouse with testectomy for the transplant. After the transplant, at a time point when the tumor volume reached 100 mm^3 or more, grouping was performed based on the tumor volume to conduct the following experiments.
Test substances were orally administered to the CWR22R subcutaneous tumor-bearing mouse. After an hour, that is, an hour before dissection, androstenedione was administered into the tumor to yield a level of 1 ng/100 mm^3 in the tumor. The composition of the liquid for administering androstenedione included 0.000075% DMF/0.00005% polysorbate 80/9.999875% saline/90% Matrigel. Tumor excision was performed through the dissection, and the tumor was weighed and then frozen for preservation. For the purpose of measuring the background value, the tumor of the mouse to which only the solvent for administering test substances had been orally administered was excised. Subsequently, under the ice cooling, the liquid for administering androstenedione was added thereto, and the resultant was subjected to quick-freezing for preservation.
To the tumor sample preserved through freezing was added a 0.2 M Na-K phosphate buffer (pH 7.4), and thereby a tumor homogenate was prepared under ice cooling by using a homogenizer (polytron). Tert-butyl methyl ether with a 6-fold capacity was added to the tumor homogenate, followed by centrifugation (3000 rpm, 5 min), and the supernatant was transferred to another test tube. While the test tube was maintained at 40° C. in a heat block, the solvent was evaporated by nitrogen gas. 2% BSA-containing 10 mM Tris-Cl buffer (pH 7.4) was added to the test tube and mixed to obtain an extract, and the testosterone concentration was measured by using DELFIA (trademark) Testosterone Reagents R050-201 (manufactured by PerkinElmer, Inc.).
The testosterone production suppression rates (%) of some Reference Example compounds in the tumor of CWR22R tumor-bearing mouse are shown in Table 25. Ex represents a Reference Example number, Inh represents the testosterone production suppression rates upon administration of 10 mg/kg of the Reference Example compounds.
Consider `O=C(O)c1cccc(-n2c(COc3ccc(F)cc3)nc3cc(C(F)(F)F)ccc32)c1` [compound 45], for which the inhibition at 10 mg/kg worked out at 94%.

Take `COCCc1cn(-c2cccc(C(=O)O)c2)c2ccc(C(F)(F)F)cc12` [Reference Example 47, 3-[3-(2-methoxyethyl)-5-(trifluoromethyl)-1H-indol-1-yl]benzoic acid]: the inhibition at 10 mg/kg was found to be 33%.

For `O=C(O)c1cccc(-n2c(Cc3ccc(Cl)cc3)nc3cc(C(F)(F)F)ccc32)c1` [compound 41, 3-[2-(4-chlorobenzyl)-5-(trifluoromethyl)-1H-benzimidazol-1-yl]benzoic acid], the inhibition at 10 mg/kg was determined as 45%.

For `Cc1cccc(-c2nc3cc(C(F)(F)F)ccc3n2-c2cccc(C(=O)O)c2)c1` [compound 36, 3-[2-(3-methylphenyl)-5-(trifluoromethyl)-1H-benzimidazol-1-yl]benzoic acid], the inhibition at 10 mg/kg came to 45%.

In the case of `CCCc1nc2cc(C(F)(F)F)ccc2n1-c1cccc(C(=O)O)c1` [compound 23, 3-[2-propyl-5-(trifluoromethyl)-1H-benzimidazol-1-yl]benzoic acid], the inhibition at 10 mg/kg worked out at 96%.

Take `O=C(O)c1cccc(-n2c(Cc3ccccc3)nc3cc(C(F)(F)F)ccc32)c1` [compound 38, 3-[2-benzyl-5-(trifluoromethyl)-1H-benzimidazol-1-yl]benzoic acid]: the inhibition at 10 mg/kg turned out to be 66%.

As for `O=C(O)c1cccc(-n2c(-c3ccccc3)nc3cc(C(F)(F)F)ccc32)c1` [compound 17, 3-[2-phenyl-5-(trifluoromethyl)-1H-benzimidazol-1-yl]benzoic acid], the inhibition at 10 mg/kg is 75%.

For the molecule `O=C(O)c1cccc(-n2c(Cc3cccc(F)c3)nc3cc(C(F)(F)F)ccc32)c1` [compound 39, 3-[2-(3-fluorobenzyl)-5-(trifluoromethyl)-1H-benzimidazol-1-yl]benzoic acid], the inhibition at 10 mg/kg is 31%.

On to `Cc1nc2cc(C(F)(F)F)ccc2n1-c1cccc(C(=O)O)c1` [compound 21, 3-[2-methyl-5-(trifluoromethyl)-1H-benzimidazol-1-yl]benzoic acid], for which the inhibition at 10 mg/kg came out at 97%.

Take `O=C(O)c1cccc(-n2cnc3cc(C(F)(F)F)ccc32)c1` [compound 20, 3-[5-(trifluoromethyl)-1H-benzimidazol-1-yl]benzoic acid]: the inhibition at 10 mg/kg was found to be 89%.

Take `O=C(O)c1cccc(-n2c(Cc3ccc(F)cc3)nc3cc(C(F)(F)F)ccc32)c1` [compound 40, 3-[2-(4-fluorobenzyl)-5-(trifluoromethyl)-1H-benzimidazol-1-yl]benzoic acid]: the inhibition at 10 mg/kg amounted to 49%.

For the molecule `O=C(O)c1cccc(-n2c(C(F)(F)F)nc3cc(C(F)(F)F)ccc32)c1` [Reference Example 54, 3-[2,5-bis(trifluoromethyl)-1H-benzimidazol-1-yl]benzoic acid], the inhibition at 10 mg/kg is 99%.

The values are drawn from patent US20110282066A1, “SCREENING METHOD FOR SUBSTANCE USEFUL AS AGENT FOR TREATING PROSTATE CANCER” (priority 2009, published 2011).
